Assay results reported in publication PMC5069460, “A novel gene cluster allows preferential utilization of fucosylated milk oligosaccharides in Bifidobacterium longum subsp. longum SC596” (Scientific Reports, 2016).

Target: T1, BLNG_00936 (SBP) (Bifidobacterium longum, UniProt Q8G848)
T1 construct: gene fruE; tag kept for detection
T1 sequence (Q8G848 23-327 limits assumed): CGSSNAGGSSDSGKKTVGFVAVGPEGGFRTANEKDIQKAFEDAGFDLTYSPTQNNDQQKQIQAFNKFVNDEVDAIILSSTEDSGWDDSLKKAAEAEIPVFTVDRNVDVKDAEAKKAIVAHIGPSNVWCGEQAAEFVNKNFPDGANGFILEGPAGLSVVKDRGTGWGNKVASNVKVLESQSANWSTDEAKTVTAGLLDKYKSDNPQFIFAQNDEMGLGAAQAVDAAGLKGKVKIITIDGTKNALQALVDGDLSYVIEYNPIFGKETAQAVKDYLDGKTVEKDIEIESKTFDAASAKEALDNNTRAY
Assay: glycan array (CFG Mammalian Glycan Array v5.[…]), anti-GST Alexa […]
Assay type: binding
Conditions: glycan immobilised via spacer; protein 200 ug/ml; pH 7.4, 150 mM NaCl, 2 mM CaCl2, 2 mM MgCl2

Molecule | Average RFU^b [RFU]
CC(=O)N[C@H]1[C@H](OCCCN)O[C@H](CO)[C@@H](O[C@@H]2O[C@H](CO)[C@H](O)[C@H](O[C@@H]3O[C@H](CO)[C@H](O)[C@H](O)[C@H]3O)[C@H]2O)[C@@H]1O [Galβ1-3Galβ1-4GlcNAcβ-Sp8] | 126

Target: T2, BLNG_01257 (SBP of FHMO cluster) (Bifidobacterium longum, UniProt A0A0M3T5K2)
T2 construct: tag kept for detection; homolog of Blon_0343 and Blon_2202
T2 sequence (A0A0M3T5K2 23-460 limits assumed): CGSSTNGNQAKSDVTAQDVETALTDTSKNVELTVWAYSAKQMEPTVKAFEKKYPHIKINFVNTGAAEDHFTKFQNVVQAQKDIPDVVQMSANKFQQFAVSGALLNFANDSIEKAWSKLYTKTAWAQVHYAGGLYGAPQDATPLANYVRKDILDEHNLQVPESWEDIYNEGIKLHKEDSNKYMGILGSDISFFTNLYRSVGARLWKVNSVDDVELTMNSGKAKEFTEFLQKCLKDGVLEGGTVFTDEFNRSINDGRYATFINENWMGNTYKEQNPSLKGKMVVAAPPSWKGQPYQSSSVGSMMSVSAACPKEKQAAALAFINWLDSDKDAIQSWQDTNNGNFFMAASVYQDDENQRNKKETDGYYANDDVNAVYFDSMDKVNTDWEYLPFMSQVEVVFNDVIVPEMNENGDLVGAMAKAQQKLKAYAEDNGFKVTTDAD
Assay: as above
Assay type: binding
Conditions: glycan immobilised via spacer; protein 200 ug/ml; pH 7.4, 150 mM NaCl, 2 mM CaCl2, 2 mM MgCl2

Molecule | Average RFU^b [RFU]
Fuca1-2Galβ1-4Glcβ-Sp0 | 360
C[C@@H]1O[C@@H](O[C@H]2C(O)O[C@H](CO)[C@H](O)[C@@H]2O)[C@@H](O)[C@H](O)[C@@H]1O (stereo partly shown) [Fuca1-2Galβ-Sp8] | 2161

Target: T3, BLNG_00160 (SBP of LNB/GNB cluster) (Bifidobacterium longum, UniProt Q8G3W5)
T3 construct: gene BL1638; tag kept for detection
T3 sequence (Q8G3W5 24-438): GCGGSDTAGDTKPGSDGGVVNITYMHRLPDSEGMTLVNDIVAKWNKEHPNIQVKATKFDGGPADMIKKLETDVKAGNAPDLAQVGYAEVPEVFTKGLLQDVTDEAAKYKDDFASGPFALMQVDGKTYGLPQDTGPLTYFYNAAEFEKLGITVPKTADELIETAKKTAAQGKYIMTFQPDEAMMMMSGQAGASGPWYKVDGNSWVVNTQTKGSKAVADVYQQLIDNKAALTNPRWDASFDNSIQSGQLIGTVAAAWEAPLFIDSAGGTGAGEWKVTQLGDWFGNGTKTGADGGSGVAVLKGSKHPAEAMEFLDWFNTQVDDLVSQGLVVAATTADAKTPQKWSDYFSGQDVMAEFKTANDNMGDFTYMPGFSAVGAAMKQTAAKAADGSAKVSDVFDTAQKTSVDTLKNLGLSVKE
Assay: as above
Assay type: binding
Conditions: glycan immobilised via spacer; protein 200 ug/ml; pH 7.4, 150 mM NaCl, 2 mM CaCl2, 2 mM MgCl2

Molecule | Average RFU^b [RFU]
CC(=O)N[C@H]1[C@H](O[C@@H]2[C@H](O)[C@@H](O)[C@H](O[C@H]3[C@H](O)[C@@H](O)[C@H](OCCCN)O[C@@H]3CO)O[C@@H]2CO)O[C@H](CO)[C@H](O)[C@@H]1O[C@@H]1O[C@H](CO)[C@H](O)[C@H](O)[C@H]1O [Galβ1-3GalNAcβ1-4Galβ1-4Glcβ-Sp8] | 3430
Galβ1-3GlcNAcβ1-3Galβ1-4Glcβ-Sp10 | 1784
CC(=O)N[C@H]1[C@H](OCCN)O[C@H](CO)[C@@H](O[C@@H]2O[C@H](CO)[C@H](O)[C@H](O[C@@H]3O[C@H](CO)[C@@H](O)[C@H](O[C@@H]4O[C@H](CO)[C@H](O)[C@H](O)[C@H]4O)[C@H]3NC(C)=O)[C@H]2O)[C@@H]1O [Galβ1-3GlcNAcβ1-3Galβ1-4GlcNAcβ-Sp0] | 2029
CC(=O)N[C@H]1[C@H](OCCCN)O[C@H](CO)[C@@H](O[C@@H]2O[C@H](CO)[C@H](O)[C@H](O[C@@H]3O[C@H](CO)[C@H](O)[C@H](O)[C@H]3O)[C@H]2O)[C@@H]1O [Galβ1-3Galβ1-4GlcNAcβ-Sp8] | 4654
CC(=O)N[C@H]1[C@H](OCCN)O[C@H](CO)[C@@H](O)[C@@H]1O[C@@H]1O[C@H](CO)[C@H](O)[C@H](O)[C@H]1O [Galβ1-3GlcNAcβ-Sp0] | 969
CC(=O)N[C@H]1[C@H](OCCCN)O[C@H](COS(=O)(=O)O)[C@@H](O)[C@@H]1O[C@@H]1O[C@H](CO)[C@H](O)[C@H](O)[C@H]1O [Galβ1-3(6S)GlcNAcβ-Sp8] | 2646
Galβ1-3GalNAcβ1-3Gal-Sp21 | 2528
